In patent publication US20080064667A1, “OXAZOLE DERIVATIVES OF TETRACYCLINES” (Wyeth, priority 2003, published 2008):
≈ marks a conversion by molar mass, not a printed value.

Key:
Assay in all cases: MIC, broth microdilution (NCCLS)
Assay type in all cases: cell-based
[1] = tested on: S. aureus GC6467 (tet(M) + (K)); conditions: Staphylococcus aureus
How it was run: (§1)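 Serial antibiotic dilutions in Mueller-Hinton II broth were inoculated to 10^5 CFU/ml. Plates were incubated 18-22 hours at 35° C. in ambient air.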

[2] = tested on: S. aureus GC2216 (ATCC Control); conditions: Staphylococcus aureus, Mueller-Hinton II broth, 18-22 hours at 35° C.
How it was run: as §1

[3] = tested on: S. aureus GC1079 (tet(K)); conditions: Staphylococcus aureus, Mueller-Hinton II broth, 18-22 hours at 35° C.
How it was run: as §1

[4] = tested on: E. coli GC4559 (parent GC4560); conditions: Escherichia coli, Mueller-Hinton II broth, 18-22 hours at 35° C.
How it was run: as §1

[5] = tested on: S. pyogenes* GC4563 (Clinical); conditions: Streptococcus pyogenes, Mueller-Hinton II broth, 18-22 hours at 35° C.
How it was run: as §1

[6] = tested on: E. coli GC2203 (ATCC Control); conditions: Escherichia coli, Mueller-Hinton II broth, 18-22 hours at 35° C.
How it was run: as §1

[7] = tested on: S. aureus GC6466 (tet(M)); conditions: Staphylococcus aureus, Mueller-Hinton II broth, 18-22 hours at 35° C.
How it was run: as §1

[8] = tested on: E. coli GC4560 (IMP mutant); conditions: Escherichia coli
How it was run: as §1

[9] = tested on: E. faecalis GC2242 (Van-resistant); conditions: Enterococcus faecalis, Mueller-Hinton II broth, 18-22 hours at 35° C.
How it was run: as §1

[10] = tested on: H. influenzae<> GC6896 (ATCC Control); conditions: Haemophilus influenzae, Mueller-Hinton II broth, 18-22 hours at 35° C.
How it was run: as §1

[11] = tested on: S. pneumoniae* GC1894 (Clinical); conditions: Streptococcus pneumoniae, Mueller-Hinton II broth, 18-22 hours at 35° C.
How it was run: as §1

[12] = tested on: S. pneumoniae* GC4465 (Clinical); conditions: Streptococcus pneumoniae, Mueller-Hinton II broth, 18-22 hours at 35° C.
How it was run: as §1

[13] = tested on: E. faecalis GC4555 (ATCC Control); conditions: Enterococcus faecalis, Mueller-Hinton II broth, 18-22 hours at 35° C.
How it was run: as §1

[14] = tested on: S. aureus GC1131 (Clinical); conditions: Staphylococcus aureus, Mueller-Hinton II broth, 18-22 hours at 35° C.
How it was run: as §1

E. coli GC2270 (tet(M)) = conditions: Escherichia coli
How it was run: as §1

[15] = tested on: M. catarrhalis* GC6907 (Clinical); conditions: Moraxella catarrhalis, Mueller-Hinton II broth, 18-22 hours at 35° C.
How it was run: as §1

[16] = tested on: C. albicans GC3066 ATCC (Control); conditions: Candida albicans, Mueller-Hinton II broth, 18-22 hours at 35° C.
[17] = tested on: S. aureus GC4536 (Smith MP -In Vivo); conditions: Staphylococcus aureus, Mueller-Hinton II broth, 18-22 hours at 35° C.
How it was run: as §1

E. coli GC1073 (tet(B)) = conditions: Escherichia coli
How it was run: as §1

[18] = tested on: E. faecalis GC2267 (tet(L) + (M) + (S)); conditions: Enterococcus faecalis
How it was run: as §1

CN(C)c1cc2nc(-c3ccc4c(c3)OCO4)oc2c2c1C[C@H]1C[C@H]3[C@H](N(C)C)C(O)=C(C(N)=O)C(=O)[C@@]3(O)C(O)=C1C2=O [Example 14, (6aR,7aS,8S,11aS)-2-(1,3-benzodioxol-5-yl)-5,8-bis(dimethylamino)-9,11a,12-trihydroxy-11,13-dioxo-6,6a,7,7a,8,11,11a,13-octahydrotetraceno[2,1-d][1,3]oxazole-10-carboxamide]
MIC [1]: 8 µg/mL (≈ 13.3 µM) | MIC [2]: 4 µg/mL (≈ 6.64 µM) | MIC [3]: 4 µg/mL (≈ 6.64 µM) | MIC [4]: > 64 µg/mL | MIC [5]: 16 µg/mL (≈ 26.6 µM) | MIC [6]: > 64 µg/mL | MIC [7]: 4 µg/mL (≈ 6.64 µM) | MIC [8]: 16 µg/mL (≈ 26.6 µM) | MIC [9]: 4 µg/mL (≈ 6.64 µM) | MIC [10]: > 64 µg/mL | MIC [11]: 16 µg/mL (≈ 26.6 µM) | MIC [12]: 16 µg/mL (≈ 26.6 µM) | MIC [13]: 8 µg/mL (≈ 13.3 µM) | MIC [14]: 4 µg/mL (≈ 6.64 µM) | MIC (E. coli GC2270 (tet(M))): > 64 µg/mL | MIC [15]: 4 µg/mL (≈ 6.64 µM) | MIC [16]: > 64 µg/mL | MIC [17]: 4 µg/mL (≈ 6.64 µM) | MIC (E. coli GC1073 (tet(B))): > 64 µg/mL

CN(C)c1cc2nc(-c3ccsc3)oc2c2c1C[C@H]1C[C@H]3[C@H](N(C)C)C(O)=C(C(N)=O)C(=O)[C@@]3(O)C(O)=C1C2=O [Example 17, (6aR,7aS,8S,11aS)-5,8-bis(dimethylamino)-9,11a,12-trihydroxy-11,13-dioxo-2-thien-3-yl-6,6a,7,7a,8,11,11a,13-octahydrotetraceno[2,1-d][1,3]oxazole-10-carboxamide]
MIC [2]: 8 µg/mL (≈ 14.2 µM) | MIC [3]: 8 µg/mL (≈ 14.2 µM) | MIC [4]: > 64 µg/mL | MIC [5]: 16 µg/mL (≈ 28.3 µM) | MIC [6]: > 64 µg/mL | MIC [7]: 8 µg/mL (≈ 14.2 µM) | MIC [8]: 4 µg/mL (≈ 7.08 µM) | MIC [9]: 8 µg/mL (≈ 14.2 µM) | MIC [10]: > 64 µg/mL | MIC [11]: 32 µg/mL (≈ 56.7 µM) | MIC [18]: 16 µg/mL (≈ 28.3 µM) | MIC [12]: 32 µg/mL (≈ 56.7 µM) | MIC [13]: 8 µg/mL (≈ 14.2 µM) | MIC [14]: 8 µg/mL (≈ 14.2 µM) | MIC (E. coli GC2270 (tet(M))): > 64 µg/mL | MIC [15]: 16 µg/mL (≈ 28.3 µM) | MIC [16]: > 64 µg/mL | MIC [17]: 8 µg/mL (≈ 14.2 µM) | MIC (E. coli GC1073 (tet(B))): > 64 µg/mL

CC(=O)OCc1ccc(-c2nc3cc(N(C)C)c4c(c3o2)C(=O)C2=C(O)[C@]3(O)C(=O)C(C(N)=O)=C(O)[C@@H](N(C)C)[C@@H]3C[C@@H]2C4)o1 [Example 21, {5-[(6aR,7aS,8S,11aS)-10-(aminocarbonyl)-5,8-bis(dimethylamino)-9,11a,12-trihydroxy-11,13-dioxo-6,6a,7,7a,8,11,11a,13-octahydrotetraceno[2,1-d][1,3]oxazol-2-yl]-2-furyl}methyl acetate]
MIC [2]: 32 µg/mL | MIC [3]: 32 µg/mL | MIC [4]: > 64 µg/mL | MIC [5]: > 64 µg/mL | MIC [6]: > 64 µg/mL | MIC [7]: 32 µg/mL | MIC [8]: > 64 µg/mL | MIC [9]: 32 µg/mL | MIC [10]: > 64 µg/mL | MIC [11]: > 64 µg/mL | MIC [18]: 64 µg/mL | MIC [12]: > 64 µg/mL | MIC [13]: > 64 µg/mL | MIC [14]: 64 µg/mL | MIC (E. coli GC2270 (tet(M))): > 64 µg/mL | MIC [15]: > 64 µg/mL | MIC [16]: > 64 µg/mL | MIC [17]: 64 µg/mL | MIC (E. coli GC1073 (tet(B))): > 64 µg/mL

CN(C)Cc1nc2cc(N(C)C)c3c(c2o1)C(=O)C1=C(O)[C@]2(O)C(=O)C(C(N)=O)=C(O)[C@@H](N(C)C)[C@@H]2C[C@@H]1C3 [Example 36, (6aR,7aS,8S,11aS)-5,8-bis(dimethylamino)-2-[(dimethylamino)methyl]-9,11a,12-trihydroxy-11,13-dioxo-6,6a,7,7a,8,11,11a,13-octahydrotetraceno[2,1-d][1,3]oxazole-10-carboxamide]
MIC [1]: 16 µg/mL (≈ 29.7 µM) | MIC [2]: 2 µg/mL (≈ 3.71 µM) | MIC [3]: 4 µg/mL (≈ 7.41 µM) | MIC [4]: 4 µg/mL (≈ 7.41 µM) | MIC [5]: 1 µg/mL (≈ 1.85 µM) | MIC [6]: 2 µg/mL (≈ 3.71 µM) | MIC [7]: 4 µg/mL (≈ 7.41 µM) | MIC [8]: 1 µg/mL (≈ 1.85 µM) | MIC [9]: 4 µg/mL (≈ 7.41 µM) | MIC [10]: 4 µg/mL (≈ 7.41 µM) | MIC [11]: 1 µg/mL (≈ 1.85 µM) | MIC [12]: 1 µg/mL (≈ 1.85 µM) | MIC [13]: 4 µg/mL (≈ 7.41 µM) | MIC [14]: 4 µg/mL (≈ 7.41 µM) | MIC [15]: 1 µg/mL (≈ 1.85 µM) | MIC [16]: > 64 µg/mL | MIC [17]: 4 µg/mL (≈ 7.41 µM)

CN(C)c1cc2nc(CN3CCCC3)oc2c2c1C[C@H]1C[C@H]3[C@H](N(C)C)C(O)=C(C(N)=O)C(=O)[C@@]3(O)C(O)=C1C2=O [Example 37, (6aR,7aS,8S,11aS)-5,8-bis(dimethylamino)-9,11a,12-trihydroxy-11,13-dioxo-2-(pyrrolidin-1-ylmethyl)-6,6a,7,7a,8,11,11a,13-octahydrotetraceno[2,1-d][1,3]oxazole-10-carboxamide]
MIC [1]: 8 µg/mL (≈ 14.1 µM) | MIC [2]: 4 µg/mL (≈ 7.07 µM) | MIC [3]: 4 µg/mL (≈ 7.07 µM) | MIC [4]: 2 µg/mL (≈ 3.54 µM) | MIC [5]: 1 µg/mL (≈ 1.77 µM) | MIC [6]: 2 µg/mL (≈ 3.54 µM) | MIC [7]: 4 µg/mL (≈ 7.07 µM) | MIC [8]: 1 µg/mL (≈ 1.77 µM) | MIC [9]: 2 µg/mL (≈ 3.54 µM) | MIC [10]: 4 µg/mL (≈ 7.07 µM) | MIC [11]: 1 µg/mL (≈ 1.77 µM) | MIC [18]: 4 µg/mL (≈ 7.07 µM) | MIC [12]: 1 µg/mL (≈ 1.77 µM) | MIC [13]: 2 µg/mL (≈ 3.54 µM) | MIC [14]: 4 µg/mL (≈ 7.07 µM) | MIC (E. coli GC2270 (tet(M))): 4 µg/mL (≈ 7.07 µM) | MIC [15]: 1 µg/mL (≈ 1.77 µM) | MIC [16]: > 64 µg/mL | MIC [17]: 4 µg/mL (≈ 7.07 µM)

CCCNCc1nc2cc(N(C)C)c3c(c2o1)C(=O)C1=C(O)[C@]2(O)C(=O)C(C(N)=O)=C(O)[C@@H](N(C)C)[C@@H]2C[C@@H]1C3 [Example 38, (6aR,7aS,8S,11aS)-5,8-bis(dimethylamino)-9,11a,12-trihydroxy-11,13-dioxo-2-[(propylamino)methyl]-6,6a,7,7a,8,11,11a,13-octahydrotetraceno[2,1-d][1,3]oxazole-10-carboxamide]
MIC [1]: > 64 µg/mL | MIC [2]: 32 µg/mL (≈ 57.8 µM) | MIC [3]: 64 µg/mL (≈ 116 µM) | MIC [4]: 32 µg/mL (≈ 57.8 µM) | MIC [5]: 4 µg/mL (≈ 7.23 µM) | MIC [6]: 32 µg/mL (≈ 57.8 µM) | MIC [7]: 32 µg/mL (≈ 57.8 µM) | MIC [8]: 8 µg/mL (≈ 14.5 µM) | MIC [9]: 16 µg/mL (≈ 28.9 µM) | MIC [10]: 64 µg/mL (≈ 116 µM) | MIC [11]: 4 µg/mL (≈ 7.23 µM) | MIC [18]: 64 µg/mL (≈ 116 µM) | MIC [12]: 4 µg/mL (≈ 7.23 µM) | MIC [13]: 16 µg/mL (≈ 28.9 µM) | MIC [14]: 32 µg/mL (≈ 57.8 µM) | MIC [15]: 4 µg/mL (≈ 7.23 µM) | MIC [16]: > 64 µg/mL | MIC [17]: 16 µg/mL (≈ 28.9 µM)

CCCCNCc1nc2cc(N(C)C)c3c(c2o1)C(=O)C1=C(O)[C@]2(O)C(=O)C(C(N)=O)=C(O)[C@@H](N(C)C)[C@@H]2C[C@@H]1C3 [Example 39, (6aR,7aS,8S,11aS)-2-[(butylamino)methyl]-5,8-bis(dimethylamino)-9,11a,12-trihydroxy-11,13-dioxo-6,6a,7,7a,8,11,11a,13-octahydrotetraceno[2,1-d][1,3]oxazole-10-carboxamide]
MIC [1]: > 64 µg/mL | MIC [2]: 32 µg/mL (≈ 56.4 µM) | MIC [3]: 64 µg/mL (≈ 113 µM) | MIC [4]: 32 µg/mL (≈ 56.4 µM) | MIC [5]: 8 µg/mL (≈ 14.1 µM) | MIC [6]: 32 µg/mL (≈ 56.4 µM) | MIC [7]: 32 µg/mL (≈ 56.4 µM) | MIC [8]: 8 µg/mL (≈ 14.1 µM) | MIC [9]: 32 µg/mL (≈ 56.4 µM) | MIC [10]: 64 µg/mL (≈ 113 µM) | MIC [11]: 8 µg/mL (≈ 14.1 µM) | MIC [18]: 64 µg/mL (≈ 113 µM) | MIC [12]: 8 µg/mL (≈ 14.1 µM) | MIC [13]: 32 µg/mL (≈ 56.4 µM) | MIC [14]: 32 µg/mL (≈ 56.4 µM) | MIC [15]: 8 µg/mL (≈ 14.1 µM) | MIC [16]: > 64 µg/mL | MIC [17]: 32 µg/mL (≈ 56.4 µM)
